# Reference: ChEMBL document CHEMBL1201862, “PubChem BioAssay data set” (2004)
#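 Where inhibition never reached the appropriate level, the endpoint shown equals the highest concentration tested. Otherwise, values were interpolated linearly from a five-concentration, 48-hour dose response in 96-well plates. GI50 is the concentration that inhibits growth by half.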 Activity calls are given as the source filed them. Cut-off read from the data, not from the text of the source: active = GI50 up to about 1.1 µM and inactive = higher.
# Columns and labels:
# Assay in all cases: inhibition of tumour cell growth, NCI panel, 48 h
# 786-0 = system: 786-0
# A498 = system: A498
# A549 = system: A549
# ACHN = system: ACHN
# CCRF-CEM = system: CCRF-CEM
# COLO 205 = system: COLO 205
# DLD-1 = system: DLD-1
# DMS-114 = system: DMS-114
# EKVX = system: EKVX
# HCC 2998 = system: HCC 2998
# HCT-116 = system: HCT-116
# HCT-15 = system: HCT-15
# HL-60 = system: HL-60
# HOP-62 = system: HOP-62
# HT-29 = system: HT-29
# IGROV-1 = system: IGROV-1
# K562 = system: K562
# KM-20L2 = system: KM-20L2
# KM12 = system: KM12
# LOX IMVI = system: LOX IMVI
# LXFL 529 = system: LXFL 529
# M19-MEL = system: M19-MEL
# MOLT-4 = system: MOLT-4
# Malme-3M = system: Malme-3M
# NCI-H226 = system: NCI-H226
# NCI-H23 = system: NCI-H23
# NCI-H460 = system: NCI-H460
# NCI-H522 = system: NCI-H522
# OVCAR-3 = system: OVCAR-3
# OVCAR-4 = system: OVCAR-4
# OVCAR-5 = system: OVCAR-5
# OVCAR-8 = system: OVCAR-8
# RPMI-8226 = system: RPMI-8226
# RXF 393 = system: RXF 393
# SF-268 = system: SF-268
# SF-295 = system: SF-295
# SK-MEL-28 = system: SK-MEL-28
# SK-MEL-5 = system: SK-MEL-5
# SN12C = system: SN12C
# SNB-19 = system: SNB-19
# SNB-78 = system: SNB-78
# SR = system: SR
# SW-620 = system: SW-620
# TK-10 = system: TK-10
# U-251 = system: U-251
# UACC-257 = system: UACC-257
# UO-31 = system: UO-31
# XF498 = system: XF498
# DMS-273 = system: DMS-273
# HOP-18 = system: HOP-18
# HOP-92 = system: HOP-92
# M14 = system: M14
# SF-539 = system: SF-539
# SK-MEL-2 = system: SK-MEL-2
# SK-OV-3 = system: SK-OV-3
# UACC-62 = system: UACC-62
# SNB-75 = system: SNB-75
smiles,measurement,setting,value
NC(=O)N1N=C2c3ccccc3SC[C@H]2[C@@H]1c1ccccc1,GI50,786-0,29 µM (inactive)
same,GI50,A498,35.1 µM (inactive)
same,GI50,A549,37.3 µM (inactive)
same,GI50,ACHN,33.3 µM (inactive)
same,GI50,CCRF-CEM,23.1 µM (inactive)
same,GI50,COLO 205,20.7 µM (inactive)
same,GI50,DLD-1,21.4 µM (inactive)
same,GI50,DMS-114,23.7 µM (inactive)
same,GI50,EKVX,35 µM (inactive)
same,GI50,HCC 2998,26.9 µM (inactive)
same,GI50,HCT-116,13.5 µM (inactive)
same,GI50,HCT-15,23.9 µM
same,GI50,HL-60,21.3 µM (inactive)
same,GI50,HOP-62,25.6 µM (inactive)
same,GI50,HT-29,19.7 µM (inactive)
same,GI50,IGROV-1,26.6 µM (inactive)
same,GI50,K562,24.2 µM (inactive)
same,GI50,KM-20L2,20.2 µM (inactive)
same,GI50,KM12,> 10 µM (inactive)
same,GI50,LOX IMVI,17.5 µM (inactive)
same,GI50,LXFL 529,26.5 µM (inactive)
same,GI50,M19-MEL,34.6 µM (inactive)
same,GI50,MOLT-4,23.7 µM (inactive)
same,GI50,Malme-3M,26.9 µM (inactive)
same,GI50,NCI-H226,22.2 µM (inactive)
same,GI50,NCI-H23,35.6 µM (inactive)
same,GI50,NCI-H460,19.1 µM (inactive)
same,GI50,NCI-H522,> 10 µM (inactive)
same,GI50,OVCAR-3,16.9 µM (inactive)
same,GI50,OVCAR-4,26.9 µM (inactive)
same,GI50,OVCAR-5,21.3 µM (inactive)
same,GI50,OVCAR-8,24 µM (inactive)
same,GI50,RPMI-8226,33.4 µM (inactive)
same,GI50,RXF 393,2.26 µM (inactive)
same,GI50,SF-268,33.3 µM (inactive)
same,GI50,SF-295,25.1 µM (inactive)
same,GI50,SK-MEL-28,21.8 µM (inactive)
same,GI50,SK-MEL-5,8.07 µM (inactive)
same,GI50,SN12C,33.8 µM (inactive)
same,GI50,SNB-19,34.5 µM (inactive)
same,GI50,SNB-78,33.5 µM (inactive)
same,GI50,SR,30 µM (inactive)
same,GI50,SW-620,33.7 µM (inactive)
same,GI50,TK-10,32.1 µM (inactive)
same,GI50,U-251,22.1 µM (inactive)
same,GI50,UACC-257,18.4 µM (inactive)
same,GI50,UO-31,23.9 µM (inactive)
same,GI50,XF498,22 µM (inactive)
O=C1C2=C(CCCC2)Nc2cccc3ncn1c23,GI50,786-0,> 100 µM (inactive)
same,GI50,A498,> 100 µM (inactive)
same,GI50,A549,> 100 µM (inactive)
same,GI50,ACHN,> 100 µM (inactive)
same,GI50,CCRF-CEM,> 100 µM (inactive)
same,GI50,COLO 205,> 100 µM (inactive)
same,GI50,DLD-1,> 100 µM (inactive)
same,GI50,DMS-114,> 100 µM (inactive)
same,GI50,DMS-273,> 100 µM (inactive)
same,GI50,EKVX,> 100 µM (inactive)
same,GI50,HCC 2998,> 100 µM (inactive)
same,GI50,HCT-116,> 100 µM (inactive)
same,GI50,HCT-15,> 100 µM
same,GI50,HL-60,> 100 µM (inactive)
same,GI50,HOP-18,10.3 µM (inactive)
same,GI50,HOP-62,> 100 µM (inactive)
same,GI50,HOP-92,> 100 µM (inactive)
same,GI50,K562,> 100 µM (inactive)
same,GI50,KM-20L2,> 100 µM (inactive)
same,GI50,KM12,> 100 µM (inactive)
same,GI50,LOX IMVI,> 100 µM (inactive)
same,GI50,LXFL 529,> 100 µM (inactive)
same,GI50,M14,> 100 µM (inactive)
same,GI50,M19-MEL,> 100 µM (inactive)
same,GI50,MOLT-4,> 100 µM (inactive)
same,GI50,Malme-3M,> 100 µM (inactive)
same,GI50,NCI-H23,> 100 µM (inactive)
same,GI50,NCI-H460,> 100 µM (inactive)
same,GI50,NCI-H522,> 100 µM (inactive)
same,GI50,OVCAR-3,> 100 µM (inactive)
same,GI50,OVCAR-5,> 100 µM (inactive)
same,GI50,OVCAR-8,> 100 µM (inactive)
same,GI50,RPMI-8226,> 100 µM (inactive)
same,GI50,RXF 393,> 100 µM (inactive)
same,GI50,SF-268,> 100 µM (inactive)
same,GI50,SF-295,> 100 µM (inactive)
same,GI50,SF-539,> 100 µM (inactive)
same,GI50,SK-MEL-28,> 100 µM (inactive)
same,GI50,SK-MEL-2,> 100 µM (inactive)
same,GI50,SK-MEL-5,> 100 µM (inactive)
same,GI50,SK-OV-3,> 100 µM (inactive)
same,GI50,SN12C,> 100 µM (inactive)
same,GI50,SNB-19,> 100 µM (inactive)
same,GI50,SNB-78,> 100 µM (inactive)
same,GI50,SR,> 100 µM (inactive)
same,GI50,SW-620,> 100 µM (inactive)
same,GI50,TK-10,> 100 µM (inactive)
same,GI50,U-251,> 100 µM (inactive)
same,GI50,UACC-257,> 100 µM (inactive)
same,GI50,UACC-62,> 100 µM (inactive)
same,GI50,UO-31,> 100 µM (inactive)
COc1ccc2[nH]c3c(O)nncc3c2c1,GI50,786-0,90.8 µM (inactive)
same,GI50,A498,> 100 µM (inactive)
same,GI50,A549,> 100 µM (inactive)
same,GI50,ACHN,> 100 µM (inactive)
same,GI50,CCRF-CEM,> 100 µM (inactive)
same,GI50,COLO 205,> 100 µM (inactive)
same,GI50,DLD-1,> 100 µM (inactive)
same,GI50,DMS-114,> 100 µM (inactive)
same,GI50,DMS-273,> 100 µM (inactive)
same,GI50,EKVX,8.45 µM (inactive)
same,GI50,HCC 2998,> 100 µM (inactive)
same,GI50,HCT-116,> 100 µM (inactive)
same,GI50,HCT-15,> 100 µM
same,GI50,HL-60,> 100 µM (inactive)
same,GI50,HOP-18,> 100 µM (inactive)
same,GI50,HOP-62,> 100 µM (inactive)
same,GI50,HOP-92,35.1 µM (inactive)
same,GI50,HT-29,> 100 µM (inactive)
same,GI50,IGROV-1,> 100 µM (inactive)
same,GI50,K562,> 100 µM (inactive)
same,GI50,KM12,> 100 µM (inactive)
same,GI50,LOX IMVI,> 100 µM (inactive)
same,GI50,LXFL 529,> 100 µM (inactive)
same,GI50,M14,> 100 µM (inactive)
same,GI50,M19-MEL,> 100 µM (inactive)
same,GI50,MOLT-4,> 100 µM (inactive)
same,GI50,Malme-3M,> 100 µM (inactive)
same,GI50,NCI-H226,> 100 µM (inactive)
same,GI50,NCI-H23,> 100 µM (inactive)
same,GI50,NCI-H460,> 100 µM (inactive)
same,GI50,NCI-H522,> 100 µM (inactive)
same,GI50,OVCAR-3,> 100 µM (inactive)
same,GI50,OVCAR-4,> 100 µM (inactive)
same,GI50,OVCAR-5,> 100 µM (inactive)
same,GI50,OVCAR-8,> 100 µM (inactive)
same,GI50,RPMI-8226,> 100 µM (inactive)
same,GI50,SF-268,> 100 µM (inactive)
same,GI50,SF-295,> 100 µM (inactive)
same,GI50,SF-539,> 100 µM (inactive)
same,GI50,SK-MEL-28,> 100 µM (inactive)
same,GI50,SK-MEL-2,71.3 µM (inactive)
same,GI50,SK-MEL-5,> 100 µM (inactive)
same,GI50,SK-OV-3,45.7 µM (inactive)
same,GI50,SNB-19,> 100 µM (inactive)
same,GI50,SNB-75,16.4 µM (inactive)
same,GI50,SNB-78,> 100 µM (inactive)
same,GI50,SR,> 100 µM (inactive)
same,GI50,SW-620,> 100 µM (inactive)
same,GI50,TK-10,> 100 µM (inactive)
same,GI50,U-251,> 100 µM (inactive)
same,GI50,UACC-257,> 100 µM (inactive)
same,GI50,UACC-62,53.2 µM (inactive)
same,GI50,UO-31,> 100 µM (inactive)
